Assay results published in article PMC12090182, “Repurposing of the RIPK1-Selective Benzo[1,4]oxazepin-4-one Scaffold for the Development of a Type III LIMK1/2 Inhibitor” (ACS Chemical Biology, 2025).
Where two headings read alike, the source gives them in different places.

Assays:
Experiment in all cases: biochemical
Assay type in all cases: binding
[1] = target: 468 kinases including some pathogenic mutants (Homo sapiens, UniProt Q9BZL6); settings: PRKD2 (Entrez PRKD2), 100 nM; read-out: Percent Control
[2] = target: 468 kinases including some pathogenic mutants (Homo sapiens, UniProt Q04771); settings: ACVR1 (Entrez ACVR1), 100 nM; read-out: Percent Control
[3] = target: 468 kinases including some pathogenic mutants (Homo sapiens, UniProt P54756); settings: EPHA5 (Entrez EPHA5), 100 nM; read-out: Percent Control
[4] = target: 468 kinases including some pathogenic mutants (Homo sapiens, UniProt Q02156); settings: PRKCE (Entrez PRKCE), 1000 nM; read-out: Percent Control
[5] = target: 468 kinases including some pathogenic mutants (Homo sapiens, UniProt Q96D53); settings: ADCK4 (Entrez ADCK4), 100 nM; read-out: Percent Control
[6] = target: 468 kinases including some pathogenic mutants (Homo sapiens, UniProt P00519, Q252H)
[7] = target: 468 kinases including some pathogenic mutants (Homo sapiens, UniProt Q9BYT3); settings: STK33 (Entrez STK33), 1000 nM; read-out: Percent Control
[8] = target: 468 kinases including some pathogenic mutants (Homo sapiens, UniProt P12931); settings: SRC (Entrez SRC), 1000 nM; read-out: Percent Control
[9] = target: 468 kinases including some pathogenic mutants (Homo sapiens, UniProt O95835); settings: LATS1 (Entrez LATS1), 100 nM; read-out: Percent Control
[10] = target: 468 kinases including some pathogenic mutants (Homo sapiens, UniProt P00519, T315I); settings: read-out: Percent Control
[11] = target: 468 kinases including some pathogenic mutants (Homo sapiens, UniProt Q8WXR4); settings: MYO3B (Entrez MYO3B), 100 nM; read-out: Percent Control
[12] = target: 468 kinases including some pathogenic mutants (Homo sapiens, UniProt P53778); settings: p38-gamma (Entrez MAPK12), 100 nM; read-out: Percent Control
[13] = target: 468 kinases including some pathogenic mutants (Homo sapiens, UniProt P00533, L861Q); settings: read-out: Percent Control
[14] = target: 468 kinases including some pathogenic mutants (Homo sapiens, UniProt O94804); settings: LOK (Entrez STK10), 100 nM; read-out: Percent Control
[15] = target: 468 kinases including some pathogenic mutants (Homo sapiens, UniProt O95382); settings: ASK2 (Entrez MAP3K6), 100 nM; read-out: Percent Control
[16] = target: 468 kinases including some pathogenic mutants (Homo sapiens, UniProt Q9H1R3); settings: MYLK2 (Entrez MYLK2), 100 nM; read-out: Percent Control
[17] = target: 468 kinases including some pathogenic mutants (Homo sapiens, UniProt P08581, M1250T); settings: read-out: Percent Control
[18] = target: 468 kinases including some pathogenic mutants (Homo sapiens, UniProt Q9UKE5); settings: TNIK (Entrez TNIK), 100 nM; read-out: Percent Control
[19] = target: 468 kinases including some pathogenic mutants (Homo sapiens, UniProt Q14164); settings: IKK-epsilon (Entrez IKBKE), 100 nM; read-out: Percent Control
[20] = target: 468 kinases including some pathogenic mutants (Homo sapiens, UniProt Q15418); settings: 1000 nM, read-out: Percent Control
[21] = target: 468 kinases including some pathogenic mutants (Homo sapiens, UniProt P37173); settings: TGFBR2 (Entrez TGFBR2), 1000 nM; read-out: Percent Control
[22] = target: 468 kinases including some pathogenic mutants (Homo sapiens, UniProt P0C1S8); settings: WEE2 (Entrez WEE2), 100 nM; read-out: Percent Control
[23] = target: 468 kinases including some pathogenic mutants (Homo sapiens, UniProt P49336); settings: CDK8 (Entrez CDK8), 100 nM; read-out: Percent Control
[24] = target: 468 kinases including some pathogenic mutants (Homo sapiens, UniProt P22455); settings: FGFR4 (Entrez FGFR4), 100 nM; read-out: Percent Control
[25] = target: 468 kinases including some pathogenic mutants (Homo sapiens, UniProt P42345); settings: MTOR (Entrez MTOR), 1000 nM; read-out: Percent Control
[26] = target: 468 kinases including some pathogenic mutants (Homo sapiens, UniProt P80192); settings: MLK1 (Entrez MAP3K9), 1000 nM; read-out: Percent Control
[27] = target: 468 kinases including some pathogenic mutants (Homo sapiens, UniProt P42336); settings: PIK3CA (Entrez PIK3CA), 100 nM; read-out: Percent Control
[28] = target: 468 kinases including some pathogenic mutants (Homo sapiens, UniProt Q6PHR2); settings: ULK3 (Entrez ULK3), 100 nM; read-out: Percent Control

Sequence of 468 kinases including some pathogenic mutants (Homo sapiens, UniProt Q15418) (Q15418 whole entry, change not shown): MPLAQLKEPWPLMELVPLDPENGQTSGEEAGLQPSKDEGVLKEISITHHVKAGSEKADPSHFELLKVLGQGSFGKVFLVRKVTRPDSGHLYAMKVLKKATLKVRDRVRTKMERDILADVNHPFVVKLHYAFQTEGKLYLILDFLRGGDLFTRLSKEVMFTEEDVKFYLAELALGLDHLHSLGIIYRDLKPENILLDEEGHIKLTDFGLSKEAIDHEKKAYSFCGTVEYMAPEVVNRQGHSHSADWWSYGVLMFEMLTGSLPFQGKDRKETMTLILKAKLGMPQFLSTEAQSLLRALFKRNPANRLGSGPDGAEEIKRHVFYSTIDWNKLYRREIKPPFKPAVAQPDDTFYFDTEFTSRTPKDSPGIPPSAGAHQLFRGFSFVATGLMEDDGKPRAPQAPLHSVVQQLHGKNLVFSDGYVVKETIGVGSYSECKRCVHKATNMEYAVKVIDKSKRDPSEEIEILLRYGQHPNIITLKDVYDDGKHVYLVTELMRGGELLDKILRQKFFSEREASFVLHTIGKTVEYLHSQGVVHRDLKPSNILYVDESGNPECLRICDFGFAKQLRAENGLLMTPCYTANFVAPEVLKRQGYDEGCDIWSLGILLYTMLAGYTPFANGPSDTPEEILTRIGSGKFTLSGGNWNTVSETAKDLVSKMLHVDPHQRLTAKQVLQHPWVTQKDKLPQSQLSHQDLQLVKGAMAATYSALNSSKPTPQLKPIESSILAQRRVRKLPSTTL
Sequence of 468 kinases including some pathogenic mutants (Homo sapiens, UniProt P08581, M1250T) (P08581 25-1390 M1250T): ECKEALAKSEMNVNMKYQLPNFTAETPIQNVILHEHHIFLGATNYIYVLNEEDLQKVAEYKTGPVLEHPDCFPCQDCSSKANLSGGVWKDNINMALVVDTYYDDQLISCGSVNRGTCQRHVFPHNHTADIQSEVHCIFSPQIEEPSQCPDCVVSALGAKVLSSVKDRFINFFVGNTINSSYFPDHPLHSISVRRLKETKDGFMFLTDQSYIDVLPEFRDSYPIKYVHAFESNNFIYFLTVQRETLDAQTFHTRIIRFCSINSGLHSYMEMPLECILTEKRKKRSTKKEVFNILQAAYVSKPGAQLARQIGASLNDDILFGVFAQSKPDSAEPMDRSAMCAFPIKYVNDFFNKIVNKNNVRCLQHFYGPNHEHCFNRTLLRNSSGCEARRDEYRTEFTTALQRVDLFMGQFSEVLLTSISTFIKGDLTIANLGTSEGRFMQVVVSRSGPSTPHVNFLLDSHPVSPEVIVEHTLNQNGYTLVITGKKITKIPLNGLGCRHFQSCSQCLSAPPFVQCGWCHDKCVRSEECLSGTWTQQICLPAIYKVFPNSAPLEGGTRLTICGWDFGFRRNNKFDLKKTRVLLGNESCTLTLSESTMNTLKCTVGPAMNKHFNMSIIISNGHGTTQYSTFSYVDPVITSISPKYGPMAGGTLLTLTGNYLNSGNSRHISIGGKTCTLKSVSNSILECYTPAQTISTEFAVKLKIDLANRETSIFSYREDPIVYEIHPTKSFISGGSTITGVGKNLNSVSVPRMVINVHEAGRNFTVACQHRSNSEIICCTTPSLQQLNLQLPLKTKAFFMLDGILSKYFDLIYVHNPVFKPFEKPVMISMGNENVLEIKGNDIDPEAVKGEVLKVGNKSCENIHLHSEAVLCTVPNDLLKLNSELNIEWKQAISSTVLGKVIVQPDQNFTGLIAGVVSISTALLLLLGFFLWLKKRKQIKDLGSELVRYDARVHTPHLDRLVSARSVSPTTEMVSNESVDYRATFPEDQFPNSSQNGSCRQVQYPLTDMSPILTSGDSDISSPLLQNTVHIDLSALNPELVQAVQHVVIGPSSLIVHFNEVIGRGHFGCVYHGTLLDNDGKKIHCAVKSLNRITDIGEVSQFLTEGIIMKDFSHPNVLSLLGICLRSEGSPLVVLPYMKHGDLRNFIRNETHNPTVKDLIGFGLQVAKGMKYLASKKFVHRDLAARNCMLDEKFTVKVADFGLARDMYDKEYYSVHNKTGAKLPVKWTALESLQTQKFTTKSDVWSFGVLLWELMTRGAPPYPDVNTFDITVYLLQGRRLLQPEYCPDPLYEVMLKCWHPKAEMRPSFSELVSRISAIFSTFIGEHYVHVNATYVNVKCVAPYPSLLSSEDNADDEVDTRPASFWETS
Sequence of 468 kinases including some pathogenic mutants (Homo sapiens, UniProt Q02156) (Q02156 whole entry, change not shown): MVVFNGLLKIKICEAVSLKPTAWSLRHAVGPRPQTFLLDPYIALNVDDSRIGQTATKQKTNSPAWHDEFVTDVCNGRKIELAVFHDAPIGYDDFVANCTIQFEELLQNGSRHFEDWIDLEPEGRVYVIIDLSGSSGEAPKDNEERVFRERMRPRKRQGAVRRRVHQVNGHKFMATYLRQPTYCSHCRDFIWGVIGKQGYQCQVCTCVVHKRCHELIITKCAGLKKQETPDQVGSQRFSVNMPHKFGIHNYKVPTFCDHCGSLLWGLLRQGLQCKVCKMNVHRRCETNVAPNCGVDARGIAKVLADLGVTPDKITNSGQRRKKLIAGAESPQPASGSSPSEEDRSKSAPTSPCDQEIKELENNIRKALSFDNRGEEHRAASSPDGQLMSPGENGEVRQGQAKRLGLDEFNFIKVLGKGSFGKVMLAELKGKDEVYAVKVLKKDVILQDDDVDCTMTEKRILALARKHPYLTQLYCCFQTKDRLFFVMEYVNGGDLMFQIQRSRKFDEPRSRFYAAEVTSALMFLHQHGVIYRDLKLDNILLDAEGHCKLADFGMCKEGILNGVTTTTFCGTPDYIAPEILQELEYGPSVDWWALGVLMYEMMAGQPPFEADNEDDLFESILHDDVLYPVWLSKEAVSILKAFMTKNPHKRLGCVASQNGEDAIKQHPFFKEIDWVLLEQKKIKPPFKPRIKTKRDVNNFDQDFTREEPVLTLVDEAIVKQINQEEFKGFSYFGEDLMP
Sequence of 468 kinases including some pathogenic mutants (Homo sapiens, UniProt Q9H1R3) (Q9H1R3 whole entry, stated change not applied): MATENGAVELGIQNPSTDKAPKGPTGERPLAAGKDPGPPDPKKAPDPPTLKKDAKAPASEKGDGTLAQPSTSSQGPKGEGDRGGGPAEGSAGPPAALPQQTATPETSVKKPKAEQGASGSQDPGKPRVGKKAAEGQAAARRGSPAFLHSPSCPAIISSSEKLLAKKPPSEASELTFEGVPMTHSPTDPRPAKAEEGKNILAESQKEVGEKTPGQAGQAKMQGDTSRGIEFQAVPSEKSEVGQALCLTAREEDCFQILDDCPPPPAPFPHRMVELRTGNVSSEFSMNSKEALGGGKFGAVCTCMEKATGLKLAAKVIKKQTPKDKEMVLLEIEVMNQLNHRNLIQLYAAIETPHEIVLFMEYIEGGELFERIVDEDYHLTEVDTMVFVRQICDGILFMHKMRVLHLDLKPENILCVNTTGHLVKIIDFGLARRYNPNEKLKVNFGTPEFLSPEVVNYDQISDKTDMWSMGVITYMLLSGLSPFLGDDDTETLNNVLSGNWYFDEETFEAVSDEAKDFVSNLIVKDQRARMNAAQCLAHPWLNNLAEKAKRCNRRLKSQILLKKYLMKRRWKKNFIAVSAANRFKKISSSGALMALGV
Sequence of 468 kinases including some pathogenic mutants (Homo sapiens, UniProt Q14164) (Q14164 whole entry, change not shown): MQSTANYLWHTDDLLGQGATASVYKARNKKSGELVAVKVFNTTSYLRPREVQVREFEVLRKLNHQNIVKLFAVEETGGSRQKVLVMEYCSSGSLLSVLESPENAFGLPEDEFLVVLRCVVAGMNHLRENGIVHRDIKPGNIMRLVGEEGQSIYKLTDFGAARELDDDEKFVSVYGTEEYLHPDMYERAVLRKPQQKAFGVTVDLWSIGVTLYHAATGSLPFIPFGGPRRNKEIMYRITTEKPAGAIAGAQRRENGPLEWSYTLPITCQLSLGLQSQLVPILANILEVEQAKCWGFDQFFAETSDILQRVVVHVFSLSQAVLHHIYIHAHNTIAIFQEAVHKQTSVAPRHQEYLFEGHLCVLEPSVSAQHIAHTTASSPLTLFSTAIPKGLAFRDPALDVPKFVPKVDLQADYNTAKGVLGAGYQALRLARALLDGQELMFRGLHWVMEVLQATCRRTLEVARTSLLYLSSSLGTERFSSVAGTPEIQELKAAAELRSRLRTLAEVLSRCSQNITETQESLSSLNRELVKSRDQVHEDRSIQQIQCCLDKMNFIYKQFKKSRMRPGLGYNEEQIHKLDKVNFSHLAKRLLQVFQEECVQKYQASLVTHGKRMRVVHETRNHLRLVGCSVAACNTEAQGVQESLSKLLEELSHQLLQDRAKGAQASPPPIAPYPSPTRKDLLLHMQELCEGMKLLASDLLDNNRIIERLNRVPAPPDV
Sequence of 468 kinases including some pathogenic mutants (Homo sapiens, UniProt Q9BYT3) (Q9BYT3 whole entry, change not shown): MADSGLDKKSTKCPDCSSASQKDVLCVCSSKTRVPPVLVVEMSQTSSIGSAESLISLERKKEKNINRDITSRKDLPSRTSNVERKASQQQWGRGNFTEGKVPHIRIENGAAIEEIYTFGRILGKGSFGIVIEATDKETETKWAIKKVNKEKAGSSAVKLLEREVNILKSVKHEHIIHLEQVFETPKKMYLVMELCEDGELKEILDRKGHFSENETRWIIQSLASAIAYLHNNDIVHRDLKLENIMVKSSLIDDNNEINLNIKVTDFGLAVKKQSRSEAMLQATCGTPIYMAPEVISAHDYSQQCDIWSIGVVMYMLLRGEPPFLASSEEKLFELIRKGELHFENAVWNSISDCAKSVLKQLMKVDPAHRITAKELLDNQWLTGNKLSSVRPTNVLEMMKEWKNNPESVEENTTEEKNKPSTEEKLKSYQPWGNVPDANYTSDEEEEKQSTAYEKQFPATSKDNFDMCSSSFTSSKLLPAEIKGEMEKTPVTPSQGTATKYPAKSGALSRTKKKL
Sequence of 468 kinases including some pathogenic mutants (Homo sapiens, UniProt P53778) (P53778 whole entry, stated change not applied): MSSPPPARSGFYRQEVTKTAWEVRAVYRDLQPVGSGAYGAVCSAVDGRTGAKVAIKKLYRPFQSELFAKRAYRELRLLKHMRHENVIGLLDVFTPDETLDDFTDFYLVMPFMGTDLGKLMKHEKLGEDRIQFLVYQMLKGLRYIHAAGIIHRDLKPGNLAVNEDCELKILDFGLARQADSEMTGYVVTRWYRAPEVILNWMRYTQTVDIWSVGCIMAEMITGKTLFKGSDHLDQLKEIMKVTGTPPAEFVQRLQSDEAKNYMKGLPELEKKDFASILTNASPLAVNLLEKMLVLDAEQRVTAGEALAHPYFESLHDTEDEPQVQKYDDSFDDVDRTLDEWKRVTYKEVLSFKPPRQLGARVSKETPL

CN1C(=O)[C@@H](N2CCc3c(nn(Cc4ccccc4)c3C(N)=O)C2=O)COc2cc(Cl)ccc21 [Compound 10, (S)-2-benzyl-6-(8-chloro-5-methyl-4-oxo-2,3,4,5-tetrahydrobenzo[b][1,4]oxazepin-3-yl)-7-oxo-4,5,6,7-tetrahydro-2H-pyrazolo[3,4-c]pyridine-3-carboxamide]
remaining activity at 0.1 µM [1]: 84% | remaining activity at 0.1 µM [2]: 88% | remaining activity at 0.1 µM [3]: 74% | remaining activity at 1 µM [4]: 100% | remaining activity at 0.1 µM [5]: 88% | Percent Control ([6]; listed as LIJTF500025): 88% | remaining activity at 0.1 µM ([6]; read-out: Percent Control): 71% | remaining activity at 1 µM [7]: 100% | remaining activity at 1 µM [8]: 100% | remaining activity at 0.1 µM [9]: 62% | remaining activity at 0.1 µM [10]: 100% | remaining activity at 0.1 µM [11]: 97% | remaining activity at 0.1 µM [12]: 65% | remaining activity at 0.1 µM [13]: 100% | remaining activity at 0.1 µM [14]: 57% | remaining activity at 0.1 µM [15]: 76% | remaining activity at 0.1 µM [16]: 90% | remaining activity at 0.1 µM [17]: 80% | remaining activity at 0.1 µM [18]: 100% | remaining activity at 0.1 µM [19]: 61% | remaining activity at 1 µM ([20]; RSK1(Kin.Dom.1-N-terminal) (Entrez RPS6KA1)): 100% | remaining activity at 1 µM ([20]; RSK1(Kin.Dom.2-C-terminal) (Entrez RPS6KA1)): 100% | remaining activity at 1 µM [21]: 100% | remaining activity at 0.1 µM [22]: 77% | remaining activity at 0.1 µM [23]: 100% | remaining activity at 0.1 µM [24]: 81% | remaining activity at 1 µM [25]: 100% | remaining activity at 1 µM [26]: 100% | remaining activity at 0.1 µM [27]: 71% | remaining activity at 0.1 µM [28]: 100%
